From patent US20130137865A1 (TAISHO PHARMACEUTICAL CO., LTD., priority 2010, published 2013) come the findings set out here.

pIC50: −log10 of the molar value.

For the assay, the target named is T1, rat mGlu2 receptor (Rattus norvegicus, UniProt P31421).
T1 construct: expressed in transfected cells; host or cells: CHO cells
T1 sequence (P31421 19-872): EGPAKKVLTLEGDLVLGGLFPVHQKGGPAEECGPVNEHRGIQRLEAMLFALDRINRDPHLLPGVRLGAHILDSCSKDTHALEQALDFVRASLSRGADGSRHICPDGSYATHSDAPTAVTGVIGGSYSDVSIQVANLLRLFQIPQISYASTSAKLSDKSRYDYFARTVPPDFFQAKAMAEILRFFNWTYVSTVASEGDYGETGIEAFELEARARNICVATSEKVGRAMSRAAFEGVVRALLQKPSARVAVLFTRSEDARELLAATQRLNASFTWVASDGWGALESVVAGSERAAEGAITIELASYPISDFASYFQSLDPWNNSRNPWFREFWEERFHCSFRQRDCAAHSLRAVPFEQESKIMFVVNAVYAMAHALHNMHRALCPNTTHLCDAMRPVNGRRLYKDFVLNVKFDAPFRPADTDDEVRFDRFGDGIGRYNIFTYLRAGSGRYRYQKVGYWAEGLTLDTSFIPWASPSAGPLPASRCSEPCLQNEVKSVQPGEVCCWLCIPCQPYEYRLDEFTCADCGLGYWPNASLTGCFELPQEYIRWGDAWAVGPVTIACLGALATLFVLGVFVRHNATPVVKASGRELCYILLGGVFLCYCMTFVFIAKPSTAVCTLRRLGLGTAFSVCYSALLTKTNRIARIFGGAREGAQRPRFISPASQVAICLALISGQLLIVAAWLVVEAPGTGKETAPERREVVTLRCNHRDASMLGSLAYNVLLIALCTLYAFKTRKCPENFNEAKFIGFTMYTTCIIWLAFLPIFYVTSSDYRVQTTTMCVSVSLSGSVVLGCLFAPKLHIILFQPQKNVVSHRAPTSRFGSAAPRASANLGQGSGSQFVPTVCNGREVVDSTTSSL
Description: [35S]GTPγS binding test (1), membranes of CHO cells stably expressing rat mGlu2. As to conditions: inhibition of glutamic acid (20 μM)-stimulated specific [35S]GTPγS binding. In kind it is biochemical. The protocol: (Preparation of Crude Membrane Fraction of CHO Cells Stably Expressing the Rat Metabotropic Glutamate Receptor (mGlu2))
CHO cells stably expressing the rat mGlu2 receptor were cultured in a 10% dialyzed fetal bovine serum-containing Dulbecco's Modified Eagle's Medium [1% proline, 50 units/mL penicillin, 50 μg/mL streptomycin, and 2 mM L-glutamine (to be added when used)] at 37° C. in 5% CO2. Confluent cells were washed with PBS(−) twice, and were then harvested with a cell scraper. Then, the cells were centrifuged at 4° C. at 1000 rpm for 5 minutes to collect. The obtained precipitate was suspended in a 20 mM HEPES buffer (pH 7.4), and then homogenized with a Teflon® homogenizer. The resultant was centrifuged at 4° C. at 48,000×g for 20 minutes to obtain a precipitate again. The obtained precipitate was washed twice by centrifugation, and was then homogenized with the above-mentioned buffer, so as to obtain a crude membrane fraction. The obtained crude membrane fraction was preserved at −80° C.
The frozen membrane fraction as prepared above was thawed when used, and it was then diluted with a binding test buffer (final concentration: 20 mM HEPES, 100 mM NaCl, 10 mM MgCl2, 8.4 μM GDP, 10 μg/mL saponin, and 0.1% BSA). The compound of the Example was added to a membrane fraction (10 μg protein/assay), and the obtained mixture was then incubated at 30° C. for 20 minutes. Thereafter, glutamic acid (final concentration: 20 μM) and [^35S]GTPγS (final concentration: 0.15 nM) were added to the reaction mixture, and then incubated at 30° C. for 1 hour. After completion of the incubation, the reaction mixture was subjected to filtration over a Whatman GF/C filter that had previously been immersed in a 20 mM HEPES buffer (pH 7.4), and the filter was then washed three times with 300 μL of ice-cold 20 mM HEPES buffer (pH 7.4). A scintillation cocktail was added to the resulting filter, and membrane-bound radioactivity was then measured with a liquid scintillation counter.
The amount of [^35S]GTPγS bound in the case of carrying out the above described reaction in the absence of glutamic acid was defined as non-specific binding. The difference between such non-specific bound and the amount of [^35S]GTPγS bound in the presence of glutamic acid was defined as specific binding. Using non-linear analysis, a concentration-inhibition curve was produced. The concentration of the compound of each Example that caused 50% inhibition (IC50 value) of specific binding was determined from each concentration-inhibition curve.
As to `Cn1ncc(-c2nc(-c3ccc(S(N)(=O)=O)cc3)no2)c1OCc1ccc(C(F)(F)F)cc1` [Example 56, 4-[5-(1-Methyl-5-{[4-(trifluoromethyl)benzyl]oxy}-1H-pyrazol-4-yl)-1,2,4-oxadiazol-3-yl]benzenesulfonamide], the pIC50 is 7.35.
In turn, `COc1cccc(OCc2c(-c3nc(-c4cccc(S(N)(=O)=O)c4)no3)cnn2C)c1` [Example 66, 3-(5-{5-[(3-Methoxyphenoxy)methyl]-1-methyl-1H-pyrazol-4-yl}-1,2,4-oxadiazol-3-yl)benzenesulfonamide] had a pIC50 of 8.37.
In turn, `Cn1ncc(-c2nc(-c3cccc(S(N)(=O)=O)c3)no2)c1COc1cccc(F)c1` [Example 68, 3-(5-{5-[(3-Fluorophenoxy)methyl]-1-methyl-1H-pyrazol-4-yl}-1,2,4-oxadiazol-3-yl)benzenesulfonamide] gave a pIC50 of 8.16.
For `Cn1ncc(-c2nc(-c3cccc(S(N)(=O)=O)c3)no2)c1COc1cccc(OC(F)(F)F)c1` [Example 69, 3-[5-(1-Methyl-5-{[3-(trifluoromethoxy)phenoxy]methyl}-1H-pyrazol-4-yl)-1,2,4-oxadiazol-3-yl]benzenesulfonamide], the pIC50 was 8.45.
As for `Cn1ncc(-c2nc(-c3cccc(S(=O)(=O)O)c3)no2)c1COc1ccc(C(F)(F)F)cc1` [Example 134, 3-[5-(1-Methyl-5-{[4-(trifluoromethyl)phenoxy]methyl}-1H-pyrazol-4-yl)-1,2,4-oxadiazol-3-yl]benzenesulfonic acid], the pIC50 was 7.60.

As a reminder, the pIC50 is the IC50 on a negative log10 scale, so that one unit is a factor of ten. The low end stands for a large IC50, the high end for a small IC50.
